Test: Solid form stability on storage, analyzed using PXRD
Assay type: physicochemical
Experimental: The crystalline Form S2 of Siponimod prepared by the process of the present application is kept at about 25° C. After three months the solid was analyzed using PXRD. […] The crystalline Form S2 of Siponimod prepared by the process of the present application is kept at about 70° C. After three months the solid was analyzed using PXRD.
In another aspect, the present application provides stable amorphous Siponimod. […] The amorphous Siponimod prepared by the process of the present application is kept in a […] at about 5° C. After one year the solid was analyzed using PXRD.
The amorphous form of siponimod prepared in example-3 was kept in an amber colored glass bottle at 2-8° C. for one year and the solid was analyzed using PXRD.

| stability of the amorphous form (time stable) (amorphous form, storage, PXRD) | solid form after storage (PXRD) (kept in a freezer at about 5° C., after one year, PXRD shown in FIG. 7) | stability of the crystalline form (time stable) (crystalline Form S2, storage, PXRD) | solid form after storage (PXRD) (kept at about 25° C., after three months, PXRD matches FIG. 3) | solid form after storage (PXRD) (kept at about 70° C., after three months, PXRD matches FIG. 3) | Structure (SMILES) |
| --- | --- | --- | --- | --- | --- |
| stable for at least one year | remains in amorphous form |  |  |  | CCc1cc(/C(C)=N/OCc2ccc(C3CCCCC3)c(C(F)(F)F)c2)ccc1CN1CC(C(=O)O)C1 [amorphous Siponimod] |
|  |  | stable for at least three months | remains in crystalline Form S2 | remains in crystalline Form S2 | CCc1cc(/C(C)=N/OCc2ccc(C3CCCCC3)c(C(F)(F)F)c2)ccc1CN1CC(C(=O)O)C1 [crystalline Form S2 of Siponimod] |

— patent US20220144768A1, “SOLID STATE FORMS OF SIPONIMOD” (DR. REDDY'S LABORATORIES LIMITED, priority 2019, published 2022)
